Reference: ChEMBL document CHEMBL1148775, “Synthesis and in vivo evaluation of fluorine-18 and iodine-123 labeled 2beta-carbo(2-fluoroethoxy)-3beta-(4'-((Z)-2-iodoethenyl)phenyl)nortropane as a candidate serotonin transporter imaging agent” (J Med Chem, 2007)

Assays:
[1] = Partition coefficient, log P at pH 7.4; type: physicochemical; settings: octanol/water
[2] = molecular target: Sodium-dependent noradrenaline transporter (Homo sapiens, UniProt P23975); assay: Binding affinity to human NET expressed in HEK293 cells; type: cell-based
[3] = molecular target: Sodium-dependent serotonin transporter (Homo sapiens, UniProt P31645); assay: Binding affinity to human SERT expressed in HEK293 cells; type: cell-based
[4] = molecular target: Sodium-dependent dopamine transporter (Homo sapiens, UniProt Q01959); assay: Binding affinity to human DAT expressed in HEK293 cells; type: cell-based
[5] = Biodistribution in iv dosed Sprague-Dawley rat pons after 60 mins; type: ADME, organism-based; settings: read-out: Drug uptake
[6] = Biodistribution in iv dosed Sprague-Dawley rat striatum in presence of RTI-113 at 6 mg/kg after 60 mins; type: ADME, organism-based; set-up: dose 6 mg/kg, route intravenous; settings: read-out: Drug uptake
[7] = Biodistribution in iv dosed Sprague-Dawley rat hippocampus in presence of RTI-113 at 6 mg/kg after 60 mins; type: ADME, organism-based; set-up: dose 6 mg/kg, route intravenous; settings: read-out: Drug uptake
[8] = Biodistribution in iv dosed Sprague-Dawley rat hypothalamus in presence of reboxetine at 6mg/kg after 60 mins; type: ADME, organism-based; settings: read-out: Drug uptake
[9] = Biodistribution in iv dosed Sprague-Dawley rat cerebellum in presence of citalopram at 6 mg/kg after 60 mins; type: ADME, organism-based; set-up: dose 6 mg/kg, route intravenous; settings: read-out: Drug uptake
[10] = Biodistribution in iv dosed Sprague-Dawley rat occipital cortex after 60 mins; type: ADME, organism-based; settings: read-out: Drug uptake
[11] = Biodistribution in iv dosed Sprague-Dawley rat striatum in after 60 mins; type: ADME, organism-based; settings: read-out: Drug uptake
[12] = Biodistribution in iv dosed Sprague-Dawley rat hippocampus in presence of reboxetine at 6 mg/kg after 60 mins; type: ADME, organism-based; set-up: dose 6 mg/kg, route intravenous; settings: read-out: Drug uptake
[13] = Biodistribution in iv dosed Sprague-Dawley rat hypothalamus in presence of citalopram at 6 mg/kg after 60 mins; type: ADME, organism-based; set-up: dose 6 mg/kg, route intravenous; settings: read-out: Drug uptake
[14] = Biodistribution in iv dosed Sprague-Dawley rat hypothalamus after 60 mins; type: ADME, organism-based; settings: read-out: Drug uptake
[15] = Biodistribution in iv dosed Sprague-Dawley rat occipital cortex in presence of citalopram at 6 mg/kg after 60 mins; type: ADME, organism-based; set-up: dose 6 mg/kg, route intravenous; settings: read-out: Drug uptake
[16] = Biodistribution in iv dosed Sprague-Dawley rat striatum in presence of reboxetine at 6 mg/kg after 60 mins; type: ADME, organism-based; set-up: dose 6 mg/kg, route intravenous; settings: read-out: Drug uptake
[17] = Biodistribution in iv dosed Sprague-Dawley rat pre frontal cortex in presence of reboxetine at 6 mg/kg after 60 mins; type: ADME, organism-based; set-up: dose 6 mg/kg, route intravenous; settings: prefrontal cortex, read-out: Drug uptake
[18] = Biodistribution in iv dosed Sprague-Dawley rat cerebellum in presence of RTI-113 at 6 mg/kg after 60 mins; type: ADME, organism-based; set-up: dose 6 mg/kg, route intravenous; settings: read-out: Drug uptake
[19] = Biodistribution in iv dosed Sprague-Dawley rat hypothalamus in presence of RTI-113 at 6 mg/kg after 60 mins; type: ADME, organism-based; set-up: dose 6 mg/kg, route intravenous; settings: read-out: Drug uptake
[20] = Biodistribution in iv dosed Sprague-Dawley rat pons in presence of citalopram at 6 mg/kg after 60 mins; type: ADME, organism-based; set-up: dose 6 mg/kg, route intravenous; settings: read-out: Drug uptake
[21] = Biodistribution in iv dosed Sprague-Dawley rat pons in presence of RTI-113 at 6 mg/kg after 60 mins; type: ADME, organism-based; set-up: dose 6 mg/kg, route intravenous; settings: read-out: Drug uptake
[22] = Biodistribution in iv dosed Sprague-Dawley rat occipital cortex in presence of reboxetine at 6 mg/kg after 60 mins; type: ADME, organism-based; set-up: dose 6 mg/kg, route intravenous; settings: read-out: Drug uptake
[23] = Biodistribution in iv dosed Sprague-Dawley rat pre frontal cortex in presence of citalopram at 6 mg/kg after 60 mins; type: ADME, organism-based; set-up: dose 6 mg/kg, route intravenous; settings: prefrontal cortex, read-out: Drug uptake
[24] = Biodistribution in iv dosed Sprague-Dawley rat hippocampus in presence of citalopram at 6 mg/kg after 60 mins; type: ADME, organism-based; set-up: dose 6 mg/kg, route intravenous; settings: read-out: Drug uptake
[25] = Biodistribution in iv dosed Sprague-Dawley rat occipital cortex in presence of RTI-113 at 6 mg/kg after 60 mins; type: ADME, organism-based; set-up: dose 6 mg/kg, route intravenous; settings: read-out: Drug uptake
[26] = Biodistribution in iv dosed Sprague-Dawley rat cerebellum in presence of reboxetine at 6 mg/kg after 60 mins; type: ADME, organism-based; set-up: dose 6 mg/kg, route intravenous; settings: read-out: Drug uptake
[27] = Biodistribution in iv dosed Sprague-Dawley rat cerebellum after 60 mins; type: ADME, organism-based; settings: read-out: Drug uptake
[28] = Biodistribution in iv dosed Sprague-Dawley rat hippocampus after 60 mins; type: ADME, organism-based; settings: read-out: Drug uptake
[29] = Biodistribution in iv dosed Sprague-Dawley rat pre frontal cortex after 60 mins; type: ADME, organism-based; settings: prefrontal cortex, read-out: Drug uptake
[30] = tested on: Cerebellum; assay: Biodistribution in iv dosed Sprague-Dawley rat cerebellum after 5 mins; type: ADME, organism-based; settings: in vivo
[31] = Biodistribution in iv dosed Sprague-Dawley rat pre frontal cortex in presence of RTI-113 at 6 mg/kg after 60 mins; type: ADME, organism-based; set-up: dose 6 mg/kg, route intravenous; settings: prefrontal cortex, read-out: Drug uptake
[32] = Biodistribution in iv dosed Sprague-Dawley rat pons in presence of reboxetine at 6 mg/kg after 60 mins; type: ADME, organism-based; set-up: dose 6 mg/kg, route intravenous; settings: read-out: Drug uptake
[33] = Biodistribution in iv dosed Sprague-Dawley rat striatum in presence of citalopram at 6 mg/kg after 60 mins; type: ADME, organism-based; set-up: dose 6 mg/kg, route intravenous; settings: read-out: Drug uptake
[34] = Ratio of drug level in caudate to cerebellum in cynomolgus monkey after 235 mins; type: ADME, tissue-based, Macaca fascicularis; settings: in vivo
[35] = Ratio of drug level in thalamus to cerebellum in cynomolgus monkey after 235 mins; type: ADME, tissue-based, Macaca fascicularis; settings: in vivo
[36] = Ratio of drug level in occipital cortex to cerebellum in cynomolgus monkey after 235 mins; type: ADME, tissue-based, Macaca fascicularis; settings: in vivo
[37] = Ratio of drug level in midbrain to cerebellum in cynomolgus monkey after 235 mins; type: ADME, tissue-based, Macaca fascicularis; settings: in vivo
[38] = Ratio of drug level in putamen to cerebellum in cynomolgus monkey after 235 mins; type: ADME, tissue-based, Macaca fascicularis; settings: in vivo
[39] = Ratio of drug level in medulla to cerebellum in cynomolgus monkey after 235 mins; type: ADME, tissue-based, Macaca fascicularis; settings: in vivo

Chain of Sodium-dependent noradrenaline transporter (P23975 whole entry): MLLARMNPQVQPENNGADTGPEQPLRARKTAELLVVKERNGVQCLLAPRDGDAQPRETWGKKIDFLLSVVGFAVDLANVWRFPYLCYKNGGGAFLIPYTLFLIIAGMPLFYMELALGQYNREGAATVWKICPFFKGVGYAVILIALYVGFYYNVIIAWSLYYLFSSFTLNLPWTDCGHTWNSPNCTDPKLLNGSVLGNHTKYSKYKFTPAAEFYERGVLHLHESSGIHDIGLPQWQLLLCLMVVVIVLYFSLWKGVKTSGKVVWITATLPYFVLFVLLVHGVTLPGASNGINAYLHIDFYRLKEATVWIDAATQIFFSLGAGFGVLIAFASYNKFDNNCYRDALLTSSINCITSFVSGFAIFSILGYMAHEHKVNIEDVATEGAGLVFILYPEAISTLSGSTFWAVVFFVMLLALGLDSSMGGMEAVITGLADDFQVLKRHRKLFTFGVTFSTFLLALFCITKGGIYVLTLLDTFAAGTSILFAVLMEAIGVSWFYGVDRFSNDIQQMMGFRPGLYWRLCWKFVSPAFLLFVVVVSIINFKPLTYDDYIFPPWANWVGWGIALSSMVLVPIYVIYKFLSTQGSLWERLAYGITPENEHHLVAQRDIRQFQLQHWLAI
Chain of Sodium-dependent serotonin transporter (P31645 whole entry): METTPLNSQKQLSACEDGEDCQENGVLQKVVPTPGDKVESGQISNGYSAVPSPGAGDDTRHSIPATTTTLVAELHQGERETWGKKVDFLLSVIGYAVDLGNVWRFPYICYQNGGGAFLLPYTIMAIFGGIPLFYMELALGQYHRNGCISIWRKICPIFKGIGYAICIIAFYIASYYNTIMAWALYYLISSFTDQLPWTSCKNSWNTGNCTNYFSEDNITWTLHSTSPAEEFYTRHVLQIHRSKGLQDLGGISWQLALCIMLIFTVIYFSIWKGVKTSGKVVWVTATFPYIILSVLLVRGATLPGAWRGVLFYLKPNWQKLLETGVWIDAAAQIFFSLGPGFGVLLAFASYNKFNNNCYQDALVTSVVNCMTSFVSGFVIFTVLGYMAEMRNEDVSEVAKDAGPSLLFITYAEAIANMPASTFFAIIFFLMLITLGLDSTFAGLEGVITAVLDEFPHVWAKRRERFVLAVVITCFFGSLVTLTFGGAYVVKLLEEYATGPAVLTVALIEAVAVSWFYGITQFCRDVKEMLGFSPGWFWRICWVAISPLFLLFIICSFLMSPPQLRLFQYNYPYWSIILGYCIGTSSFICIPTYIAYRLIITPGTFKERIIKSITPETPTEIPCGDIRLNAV
Chain of Sodium-dependent dopamine transporter (Q01959 whole entry): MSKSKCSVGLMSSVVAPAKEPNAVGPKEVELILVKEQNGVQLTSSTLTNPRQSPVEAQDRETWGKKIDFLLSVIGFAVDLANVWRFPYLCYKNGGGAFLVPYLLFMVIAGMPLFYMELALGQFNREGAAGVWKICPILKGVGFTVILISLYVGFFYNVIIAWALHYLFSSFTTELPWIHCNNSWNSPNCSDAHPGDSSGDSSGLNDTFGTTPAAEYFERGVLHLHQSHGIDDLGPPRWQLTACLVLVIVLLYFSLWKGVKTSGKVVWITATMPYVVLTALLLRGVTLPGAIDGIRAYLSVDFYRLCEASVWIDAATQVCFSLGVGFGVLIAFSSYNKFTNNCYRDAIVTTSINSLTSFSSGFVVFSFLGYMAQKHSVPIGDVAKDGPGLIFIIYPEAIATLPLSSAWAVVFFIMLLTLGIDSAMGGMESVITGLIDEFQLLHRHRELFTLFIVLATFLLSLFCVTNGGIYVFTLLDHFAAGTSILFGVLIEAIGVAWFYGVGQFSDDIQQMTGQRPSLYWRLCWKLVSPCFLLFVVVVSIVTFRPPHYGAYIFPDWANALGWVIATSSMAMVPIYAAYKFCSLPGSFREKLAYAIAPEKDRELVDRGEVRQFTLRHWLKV

For `O=C(OCCF)C1C2CCC(CC1c1ccc(/C=C\I)cc1)N2` (centres undefined), the logD [1] was 1.8, the Ki [2] was 28 nM and the Ki [3] was 0.08 nM. For the same compound, the Ki [4] was 13 nM.

With `O=C(OCCF)C1C2CCC(CC1c1ccc(/C=C\[123I])cc1)N2` (centres undefined) the tissue uptake at 1 h [5] was 0.22 %ID/g, the tissue uptake at 1 h [6] was 0.26 %ID/g and the tissue uptake at 1 h [7] was 0.25 %ID/g. For the same compound, the tissue uptake at 1 h [8] was 0.26 %ID/g, the tissue uptake at 1 h [9] was 0.11 %ID/g and the tissue uptake at 1 h [10] was 0.24 %ID/g. The tissue uptake at 1 h [11] was 0.25 %ID/g, the tissue uptake at 1 h [12] was 0.23 %ID/g and the tissue uptake at 1 h [13] was 0.18 %ID/g. The tissue uptake at 1 h [14] was 0.27 %ID/g, the tissue uptake at 1 h [15] was 0.16 %ID/g and the tissue uptake at 1 h [16] was 0.26 %ID/g. It also gave a tissue uptake at 1 h [17] of 0.28 %ID/g, a tissue uptake at 1 h [18] of 0.12 %ID/g and a tissue uptake at 1 h [19] of 0.32 %ID/g. It also gave a tissue uptake at 1 h [20] of 0.14 %ID/g, a tissue uptake at 1 h [21] of 0.22 %ID/g and a tissue uptake at 1 h [22] of 0.23 %ID/g. The tissue uptake at 1 h [23] was 0.17 %ID/g, the tissue uptake at 1 h [24] was 0.16 %ID/g and the tissue uptake at 1 h [25] was 0.24 %ID/g. It also gave a tissue uptake at 1 h [26] of 0.13 %ID/g, a tissue uptake at 1 h [27] of 0.12 %ID/g and a tissue uptake at 1 h [28] of 0.24 %ID/g. For the same compound, the tissue uptake at 1 h [29] was 0.26 %ID/g, the Drug uptake [30] was 0.24 % ID/g and the tissue uptake at 1 h [31] was 0.28 %ID/g. The tissue uptake at 1 h [32] was 0.2 %ID/g and the tissue uptake at 1 h [33] was 0.15 %ID/g.

Work on `O=C(OCC[18F])C1C2CCC(CC1c1ccc(/C=C\I)cc1)N2` (centres undefined) yielded a Ratio [34] of 2.6, a Ratio [35] of 3.3 and a Ratio [36] of 1.6. It also gave a Ratio [37] of 4.4, a Ratio [38] of 3.8 and a Ratio [39] of 3.3.
